Experimental data reported in patent US11866450B2, “Modulators of Cystic Fibrosis Transmembrane Conductance regulator, pharmaceutical compositions, methods of treatment, and process for making the modulators” (priority 2018, dated 2024).
“And” between values parts separate entries of the source, which are not always exact repeats. Identical values can stand only once. Like-named read-outs stand apart in the source and are kept apart here.

Legend:
[1] = snar bond, DMSO
[2] = target: CFTR-mediated chloride transport (Homo sapiens, UniProt P13569); format: cell-based; conditions: enteroid cells incubated with test compound 18-24 hours, acute 10 μM forskolin and 300 nM Compound III; for Max. Activity: % of chloride transport with 3 μM Compound A, 3 μM Compound II and 300 nM acute Compound III triple combination control
Outline: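 Membrane-potential fluorescence AUC over 15 min quantified CFTR chloride transport after acute forskolin (10 μM), IBMX (100 μM) and Compound III (300 nM) in chloride-free buffer. Human enteroid cells were pretreated with compound for 18–24 h; % Activity is relative to 3 μM Compound A + 3 μM Compound II + 300 nM Compound III.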

Sequence of CFTR-mediated chloride transport (P13569 whole entry, looked up): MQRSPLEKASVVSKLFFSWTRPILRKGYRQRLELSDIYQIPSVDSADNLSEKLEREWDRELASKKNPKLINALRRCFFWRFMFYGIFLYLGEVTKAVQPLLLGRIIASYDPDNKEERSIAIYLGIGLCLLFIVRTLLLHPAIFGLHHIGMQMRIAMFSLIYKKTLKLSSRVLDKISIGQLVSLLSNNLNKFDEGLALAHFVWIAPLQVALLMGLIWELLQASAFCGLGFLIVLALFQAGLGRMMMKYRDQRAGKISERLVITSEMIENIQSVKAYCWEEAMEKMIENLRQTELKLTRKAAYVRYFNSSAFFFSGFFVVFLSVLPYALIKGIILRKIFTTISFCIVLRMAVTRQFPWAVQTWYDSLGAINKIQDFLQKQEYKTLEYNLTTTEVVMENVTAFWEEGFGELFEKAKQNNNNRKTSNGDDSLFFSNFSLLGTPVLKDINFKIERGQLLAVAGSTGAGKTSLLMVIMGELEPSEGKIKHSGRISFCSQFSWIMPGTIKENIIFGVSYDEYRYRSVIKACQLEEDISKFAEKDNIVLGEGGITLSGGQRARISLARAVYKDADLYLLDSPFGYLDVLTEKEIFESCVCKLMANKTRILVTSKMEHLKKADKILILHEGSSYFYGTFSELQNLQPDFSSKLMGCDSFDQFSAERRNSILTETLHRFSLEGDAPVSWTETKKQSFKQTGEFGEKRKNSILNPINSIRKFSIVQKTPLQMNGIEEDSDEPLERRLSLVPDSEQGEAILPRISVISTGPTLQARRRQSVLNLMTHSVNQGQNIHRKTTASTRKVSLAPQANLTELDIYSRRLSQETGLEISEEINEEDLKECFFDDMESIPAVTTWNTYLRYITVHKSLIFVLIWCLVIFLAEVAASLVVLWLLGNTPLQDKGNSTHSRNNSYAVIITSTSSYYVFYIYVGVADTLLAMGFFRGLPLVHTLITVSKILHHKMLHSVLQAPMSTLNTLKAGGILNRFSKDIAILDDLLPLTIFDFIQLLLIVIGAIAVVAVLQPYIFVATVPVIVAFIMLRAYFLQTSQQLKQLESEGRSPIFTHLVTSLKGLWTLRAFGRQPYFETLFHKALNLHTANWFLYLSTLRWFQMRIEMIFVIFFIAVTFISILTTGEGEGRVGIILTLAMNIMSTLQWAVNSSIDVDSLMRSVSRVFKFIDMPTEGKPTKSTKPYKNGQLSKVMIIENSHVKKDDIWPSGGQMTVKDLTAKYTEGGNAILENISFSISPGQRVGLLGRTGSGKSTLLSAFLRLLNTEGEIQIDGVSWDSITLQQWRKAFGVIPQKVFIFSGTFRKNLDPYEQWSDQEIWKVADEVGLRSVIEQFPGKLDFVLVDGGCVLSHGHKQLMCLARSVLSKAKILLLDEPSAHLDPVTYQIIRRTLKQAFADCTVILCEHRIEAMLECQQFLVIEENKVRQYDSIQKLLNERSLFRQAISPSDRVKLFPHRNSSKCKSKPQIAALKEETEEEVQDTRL

Structure (SMILES)	EC50 [2]	Max. Activity [2]	other results
CC1(C)CC2CCCCc3cccc(n3)S(=O)(=O)NC(=O)c3ccc(-n4ccc(OCCC5(C(F)(F)F)CC5)n4)nc3N1C2 (stereo not drawn) [Compound 78, 12,12-dimethyl-8-(3-{2-[1-(trifluoromethyl)cyclopropyl]ethoxy}-1H-pyrazol-1-yl)-2λ^6-thia-3,9,11,23-tetraazatetracyclo[17.3.1.111,14.05,10]tetracosa-1(23),5,7,9,19,21-hexaene-2,2,4-trione]	< 1000 nM	+++ (+++ is >60%)	ring closure, yield after HPLC ([1]; from CC(C)(C)OC(=O)N1CC(CCCCc2cccc(S(=O)(=O)NC(=O)c3ccc(-n4ccc(OCCC5(C(F)(F)F)CC5)n4)nc3Cl)n2)CC1(C)C, 15-membered ring, HCl (Boc off), K2CO3/CsF/3A MS, 65.0 mM, 150.0 °C, 2 steps): 37%
CC(C)C(COc1ccn(-c2ccc3c(n2)N2CC(CC2(C)C)OCCNc2cccc(n2)S(=O)(=O)NC3=O)n1)C(C)C (stereo not drawn) [Compound 238, 12,12-dimethyl-8-{3-[3-methyl-2-(propan-2-yl)butoxy]-1H-pyrazol-1-yl}-15-oxa-2λ^6-thia-3,9,11,18,23-pentaazatetracyclo[17.3.1.111,14.05,10]tetracosa-1(23),5(10),6,8,19,21-hexaene-2,2,4-trione]	< 1000 nM	+++ (+++ is >60%)	ring closure, yield after HPLC ([1]; from CC(C)C(COc1ccn(-c2ccc(C(=O)NS(=O)(=O)c3cccc(NCCOC4CN(C(=O)OC(C)(C)C)C(C)(C)C4)n3)c(Cl)n2)n1)C(C)C, 15-membered ring, K2CO3/CsF/3A MS, 78.4 mM, 140.0 °C, 2 steps): 44%
CC1(C)C[C@@H]2CCCNc3cccc(n3)S(=O)(=O)NC(=O)c3ccc(-n4ccc(OCC(C)(C)C(F)(F)F)n4)nc3N1C2 [Compound 208, (14S)-12,12-dimethyl-8-[3-(3,3,3-trifluoro-2,2-dimethylpropoxy)-1H-pyrazol-1-yl]-2λ^6-thia-3,9,11,18,23-pentaazatetracyclo[17.3.1.111,14.05,10]tetracosa-1(22),5,7,9,19(23),20-hexaene-2,2,4-trione]	< 1000 nM	+++ (+++ is >60%)	ring closure, yield after HPLC ([1]; from CC1(C)C[C@H](CCCNc2cccc(S(=O)(=O)NC(=O)c3ccc(-n4ccc(OCC(C)(C)C(F)(F)F)n4)nc3Cl)n2)CN1, 15-membered ring, K2CO3/CsF/3A MS, 57.7 mM, 150.0 °C): 51%
Cc1ccc2nc1S(=O)(=O)NC(=O)c1ccc(-n3ccc(OCCC4(C(F)(F)F)CC4)n3)nc1N1CC(CCCN2)CC1(C)C (stereo not drawn) [Compound 129, 12,12,22-Trimethyl-8-(3-{2-[1-(trifluoromethyl)cyclopropyl]ethoxy}-1H-pyrazol-1-yl)-2λ^6-thia-3,9,11,18,23-pentaazatetracyclo[17.3.1.111,14.05,10]tetracosa-1(23),5(10),6,8,19,21-hexaene-2,2,4-trione]	< 1000 nM	+++ (+++ is >60%)	ring closure, yield after HPLC ([1]; from Cc1ccc(NCCCC2CN(C(=O)OC(C)(C)C)C(C)(C)C2)nc1S(=O)(=O)NC(=O)c1ccc(-n2ccc(OCCC3(C(F)(F)F)CC3)n2)nc1Cl, 15-membered ring, K2CO3/CsF/3A MS, 79.1 mM, 140.0 °C, 2 steps): 34%
CC(C)(C)COc1ccn(-c2ccc3c(n2)N2CC(CCNc4cccc(n4)S(=O)(=O)NC3=O)CC2(C)C)n1 (stereo not drawn) [Compound 1, 11-[3-(2,2-dimethylpropoxy)-1H-pyrazol-1-yl]-7,7-dimethyl-17λ^6-thia-2,8,10,16,22-pentaazatetracyclo[16.3.1.15,8.09,14]tricosa-1(21),9(14),10,12,18(22),19-hexaene-15,17,17-trione]	< 1000 nM	+++ (+++ is >60%)	ring closure, yield after HPLC ([1]; from CC(C)(C)COc1ccn(-c2ccc(C(=O)NS(=O)(=O)c3cccc(NCCC4CNC(C)(C)C4)n3)c(Cl)n2)n1, 14-membered ring, K2CO3, 155.0 °C, 62.0 h, 2 steps): 10%
CC1(C)CC2CCCCNc3cccc(n3)S(=O)(=O)NC(=O)c3ccc(-n4cc(OCCC5(C(F)(F)F)CC5)cn4)nc3N1C2 (racemic) [Compound 70, 12,12-Dimethyl-8-(4-{2-[1-(trifluoromethyl)cyclopropyl]ethoxy}-1H-pyrazol-1-yl)-2λ^6-thia-3,9,11,19,24-pentaazatetracyclo[18.3.1.111,14.05,10]pentacosa-1(23),5,7,9,20(24),21-hexaene-2,2,4-trione]	< 1000 nM	++ (++ is 30-60%)	ring closure, yield after HPLC ([1]; from CC1(C)CC(CCCCNc2cccc(S(=O)(=O)NC(=O)c3ccc(-n4cc(OCCC5(C(F)(F)F)CC5)cn4)nc3Cl)n2)CN1, 16-membered ring, K2CO3/CsF/3A MS, 164.4 mM, 150.0 °C): 24%
CC1(C)CC2CCCNc3cc(ccn3)S(=O)(=O)NC(=O)c3ccc(-n4ccc(OCCC5(C(F)(F)F)CC5)n4)nc3N1C2 (stereo not drawn) [Compound 93, 12,12-dimethyl-8-(3-{2-[1-(trifluoromethyl)cyclopropyl]ethoxy}-1H-pyrazol-1-yl)-2λ^6-thia-3,9,11,18,20-pentaazatetracyclo[17.3.1.111,14.05,10]tetracosa-1(22),5,7,9,19(23),20-hexaene-2,2,4-trione]	< 1000 nM	+++ (+++ is >60%)	ring closure, yield after HPLC ([1]; from CC(C)(C)OC(=O)N1CC(CCCNc2cc(S(=O)(=O)NC(=O)c3ccc(-n4ccc(OCCC5(C(F)(F)F)CC5)n4)nc3Cl)ccn2)CC1(C)C, 15-membered ring, TFA (Boc off), CsF/K2CO3/3A MS, 26.0 mM, 130.0 °C, 2 steps): 30%
CC1(C)C[C@H]2CCCNc3cccc(n3)S(=O)(=O)NC(=O)c3ccc(-n4ccc(OCCCC5(C(F)(F)F)CC5)n4)nc3N1C2 [Compound 190, (14R)-12,12-dimethyl-8-(3-{3-[1-(trifluoromethyl)cyclopropyl]propoxy}-1H-pyrazol-1-yl)-2λ^6-thia-3,9,11,18,23-pentaazatetracyclo[17.3.1.111,14.05,10]tetracosa-1(23),5,7,9,19,21-hexaene-2,2,4-trione]	< 1000 nM	++ (++ is 30-60%)	ring closure, yield after HPLC ([1]; from CC1(C)CC(CCCNc2cccc(S(=O)(=O)NC(=O)c3ccc(-n4ccc(OCCCC5(C(F)(F)F)CC5)n4)nc3Cl)n2)CN1, 15-membered ring, K2CO3/CsF/4A MS, 102.3 mM, 150.0 °C, 2 steps): 49%
CC1(C)CC2CCCNc3ccnc(c3)S(=O)(=O)NC(=O)c3ccc(-n4ccc(OCCC5(C(F)(F)F)CC5)n4)nc3N1C2 (stereo not drawn) [Compound 23, 12,12-dimethyl-8-(3-{2-[1-(trifluoromethyl)cyclopropyl]ethoxy}-1H-pyrazol-1-yl)-2λ^6-thia-3,9,11,18,22-pentaazatetracyclo[17.3.1.111,14.05,10]tetracosa-1(23),5(10),6,8,19,21-hexaene-2,2,4-trione]	> 3000 nM	+ (+ is <30%)	ring closure, yield after HPLC ([1]; from CC(C)(C)OC(=O)N1CC(CCCNc2ccnc(S(=O)(=O)NC(=O)c3ccc(-n4ccc(OCCC5(C(F)(F)F)CC5)n4)nc3Cl)c2)CC1(C)C, 15-membered ring, K2CO3/CsF, 13.0 mM, 150.0 °C, 2 steps): 9%
CC1(C)C[C@@H]2CCCNc3cccc(n3)S(=O)(=O)NC(=O)c3ccc(-n4ccc(O)n4)nc3N1C2 [Compound 256, (14S)-8-(3-hydroxy-1H-pyrazol-1-yl)-12,12-dimethyl-2λ^6-thia-3,9,11,18,23-pentaazatetracyclo[17.3.1.111,14.05,10]tetracosa-1(22),5,7,9,19(23),20-hexaene-2,2,4-trione]	> 3000 nM	++ (++ is 30-60%)	ring closure, yield after HPLC ([1]; from CC(C)(C)OC(=O)N1C[C@@H](CCCNc2cccc(S(=O)(=O)NC(=O)c3ccc(-n4ccc(OCC5C(C)(C)C5(C)C)n4)nc3Cl)n2)CC1(C)C, 15-membered ring, TFA/DCM, then K2CO3/CsF/3A MS, 23.1 mM, 150.0 °C, 2 steps): 17%
CC1(C)CC2CCNc3cccc(n3)S(=O)(=O)NC(=O)c3ccc(-n4ccc(OCC5(C(F)(F)F)CC5)n4)nc3N1C2 (stereo not drawn) [Compound 4, 7,7-dimethyl-11-(3-{[1-(trifluoromethyl)cyclopropyl]methoxy}-1H-pyrazol-1-yl)-17λ^6-thia-2,8,10,16,22-pentaazatetracyclo[16.3.1.1(5,8).0(9,14)]tricosa-1(21),9(14),10,12,18(22),19-hexaene-15,17,17-trione]	< 1000 nM	+++ (+++ is >60%)	ring closure, yield after HPLC ([1]; from CC1(C)CC(CCNc2cccc(S(=O)(=O)NC(=O)c3ccc(-n4ccc(OCC5(C(F)(F)F)CC5)n4)nc3Cl)n2)CN1, 14-membered ring, K2CO3, 210.5 mM, 125.0 °C, 112.0 h, 2 steps): 9%
Cc1ccc2nc1OCCC[C@@H]1CN(c3nc(-n4ccc(OCCC5(C(F)(F)F)CC5)n4)ccc3C(=O)NS2(=O)=O)C(C)(C)C1 [Compound 109, (14S)-12,12,20-Trimethyl-8-(3-{2-[1-(trifluoromethyl)cyclopropyl]ethoxy}-1H-pyrazol-1-yl)-18-oxa-2λ^6-thia-3,9,11,23-tetraazatetracyclo[17.3.1.111,14.05,10]tetracosa-1(23),5(10),6,8,19,21-hexaene-2,2,4-trione]	< 1000 nM	++ (++ is 30-60%)	ring closure, yield after HPLC ([1]; from Cc1ccc(S(=O)(=O)NC(=O)c2ccc(-n3ccc(OCCC4(C(F)(F)F)CC4)n3)nc2Cl)nc1OCCC[C@@H]1CN(C(=O)OC(C)(C)C)C(C)(C)C1, 15-membered ring, HCl (Boc off), K2CO3/CsF/3A MS, 62.8 mM, 140.0 °C, 2 steps): 32%
CC1(C)CC2CCCn3ccc(n3)S(=O)(=O)NC(=O)c3ccc(-n4ccc(OCCC(C5CC5)C5CC5)n4)nc3N1C2 (stereo not drawn) [Compound 141, 4-[3-(3,3-Dicyclopropylpropoxy)-1H-pyrazol-1-yl]-20,20-dimethyl-10λ^6-thia-1,3,9,14,22-pentaazatetracyclo[16.2.1.111,14.02,7]docosa-2,4,6,11(22),12-pentaene-8,10,10-trione]	< 1000 nM	+++ (+++ is >60%)	ring closure, yield after HPLC ([1]; from CC(C)(C)OC(=O)N1CC(CCCn2ccc(S(=O)(=O)NC(=O)c3ccc(-n4ccc(OCCC(C5CC5)C5CC5)n4)nc3Cl)n2)CC1(C)C, 14-membered ring, K2CO3/CsF/3A MS, 66.2 mM, 150.0 °C, 2 steps): 23% and 22%
